Results from patent US20070238755A1, “Methods to treat and/or prevent radiation- and/or chemical-induced toxicity in non-malignant tissue” (priority 2005, published 2007).

Assays:
Format in all cases: in vivo, male Sprague-Dawley rats
[1] = tested on: irradiated rats (locally irradiated scrotal hernia containing a loop of distal ileum); assay: Morphometry of irradiated intestine, intestinal fibrosis Experiment 1; details: trend is worded for vehicle-treated animals as compared to Formula 2-treated animals
Text: (§1) A particularly relevant animal model for radiation toxicity is described in Wang et al., J Thromb Haemost, 2(11):2027-2035 (2004)). In brief, a “scrotal hernia” containing a 4 cm loop of distal ileum is surgically created in male Sprague-Dawley rats. After a 3 week recovery period, the scrotal hernia is irradiated locally without exposing the rest of the animal to ionizing radiation.
(§2) Scrotal hernias were created in rats which subsequently received one of three different treatments subcutaneously: (i) vehicle control (i.e., 0.4% methyl cellulose); (ii) 10 mg/kg/day of Formula 2; and (iii) 15 mg/kg/day of Formula 2. The treatments were administered for 24 days total, starting the day before irradiation (i.e., from Day-1 to Day 23). […] After an additional 2 week observation period following treatment, the rats were euthanized and assessed for radiation toxicity using these endpoints: structural radiation injury, immunohistochemistry (e.g., neutrophil infiltration, collagen type III deposition, smooth muscle cell proliferation, extracellular matrix-associated TGF-β immunoreactivity, collagen type I deposition, macrophages (ED-2)), and morphomety.
The thickness of the intestinal wall proper (submucosa, muscularis externa, and subserosa, but excluding the mucosa) was measured with an eyepiece linear microruler. […]

[2] = tested on: irradiated rats (locally irradiated scrotal hernia containing a loop of distal ileum); assay: Structural radiation injury (Radiation Injury Score) in the scrotal hernia intestinal fibrosis model, Experiment 1; details: 10 or 15 mg/kg/day s.c. for 24 days (Day -1 to Day 23); 5 Gy for 9 days; compared to vehicle; p=0.003 Jonckheere-Terpstra test; FIG. 1
Text: as §1
as §2, with “2.” for “2. The treatments were administered for 24 days total, starting the day before irradiation (i.e., from Day-1 to Day 23).”
Structural radiation injury was assessed in hematoxylin-eosin-stained sections using a radiation injury score system previously described (see, Langberg et al., Acta Oncol, 31(7):781-787 (1992); and Hauer-Jensen et al., Acta Radiol Oncol, 22(4):299-303 (1983)). […]

[3] = tested on: irradiated rats (locally irradiated scrotal hernia containing a loop of distal ileum); assay: Quantitative immunohistochemistry of irradiated intestine, intestinal fibrosis Experiment 1
Text: as §1
Scrotal hernias were created in rats which subsequently received one of three different treatments subcutaneously: (i) vehicle control (i.e., 0.4% methyl cellulose); (ii) 10 mg/kg/day of Formula 2; and (iii) 15 mg/kg/day of Formula 2. The treatments were administered for 24 days total, starting the day before irradiation (i.e., from Day-1 to Day 23). Beginning on Day 1, the scrotal hernia of each animal was irradiated locally by exposure to 5 Gy for 9 days. After an additional 2 week observation period following treatment, the rats were euthanized and assessed for radiation toxicity using these endpoints: structural radiation injury, immunohistochemistry (e.g., neutrophil infiltration, collagen type III deposition, smooth muscle cell proliferation, extracellular matrix-associated TGF-β immunoreactivity, collagen type I deposition, macrophages (ED-2)), and morphomety.
Quantitative immunohistochemistry was used to determine: (i) neutrophil infiltration by mycloperoxidase stalninig; (ii) intestinal smooth muscle cell proliferation using proliferation cell nuclear antigen (PCNA) labeling index; (iii) collagen deposition by staining for collagen types I and III; (iv) extracellular matrix-associated transforming growth factor (TGF)-β, and (v) macrophage ED-2. Immunohistochemical staining was performed with appropriate positive and negative controls using the avidin-biotin complex (ABC) technique previously described by Wang et al., J Thromb Haemost, 2(11):2027-2035 (2004). Primary antibodies, catalog numbers, incubation times, dilutions, and companies were: polyclonal antimyeloperoxidase antibody (A0398, 2 h, 1:100; Dako, Carpinteria, Calif., USA); monoclonal anti-PCNA antibody (NA03, 2 h, 1:100; Calbiochem, Cambridge, Mass., USA); polyclonal antibodies against collagen type I (1310-01, 2 h, 1:100 dilution; Southern Biotechnology Associates, Birmingham, Alab., USA); collagen type III (1330-01, 2 h, 1:100 dilution, Southern Biotechnology Associates); polyclonal rabbit anti-TGF-P antibody (AB-100-NA, 2 h, 1:300 dilution; R&D, Minneapolis, Minn., USA); and ED-2 (MCA342, 2 h, 1:100 dilution, Serotec, Rahway, N.C., USA).
Computerized image analysis was performed as previously described (see, Wang et al., Thromb Haemost, 87(1):122-128(2002); Wang et al., J Pharmacol Exp Ther, 297(1):35-42 (2001)). Neutrophil infiltration was assayed by identifying myeloperoxidase-positive cells as previously described (see, Wang et al., Thromb Haemost, 87(1):122-128(2002)). Areas positive for collagen types I and III deposition were measured as previously described 'see, Raviv et al., World J Urol, 15(l1):50-55 (1997); and Wang et al., Thromb Haemost, 87(1):122-128(2002)). Extracellular matrix-associated TGF-β immunoreactivity was measured as previously described (see, Richter et al., Radiother Oncol, 39(3):243-251 (1996)).
Differences in endpoints as a function of drug treatment (PAR-1 inhibitor vs. vehicle) were assessed using fixed-factor analysis of variance and post hoc comparisons with Newman-Keul's test (NCSS2000 for Windows 95, NCSS, Kaysville, Utah, USA). Univariate comparisons were performed with the Mann-Whitney U-test using StatXact 5 (Cytel Software, Cambridge, Mass., USA), a software package for exact non-parametric inference.

[4] = trend is worded for vehicle-treated animals as compared to Formula 2-treated animals, p=0.4 Jonckheere-Terpstra test

## CCOC(=O)N[C@@H]1CC[C@@H]2[C@@H](C1)C[C@H]1C(=O)O[C@H](C)[C@H]1[C@H]2/C=C/c1ccc(-c2ccccn2)cn1 [Formula 2]
[1]; p=0.2 Jonckheere-Terpstra test
  intestinal wall thickening (thickness of the intestinal wall proper): trend toward intestinal wall thickening in vehicle-treated animals
[1]; p=0.3 Jonckheere-Terpstra test
  serosal thickening: trend toward serosal thickening in vehicle-treated animals
[2]
  structural radiation injury as measured by Radiation Injury Score: less
[3]; 10 or 15 mg/kg/day s.c. for 24 days, 5 Gy for 9 days, compared to vehicle, p=0.005 Jonckheere-Terpstra test, FIG. 3
  collagen type III deposition: reduced
[3]; 10 or 15 mg/kg/day s.c. for 24 days, 5 Gy for 9 days, compared to vehicle, p=0.04 Jonckheere-Terpstra test, FIG. 4
  smooth muscle cell proliferation (PCNA positive cells): reduced
[3]; 10 or 15 mg/kg/day s.c. for 24 days, 5 Gy for 9 days, compared to vehicle, p=0.05 Jonckheere-Terpstra test, FIG. 2
  neutrophil infiltration (myeloperoxidase-positive cells): reduced
[3]; trend is worded for vehicle-treated animals as compared to Formula 2-treated animals, p=0.1 Jonckheere-Terpstra test
  extracellular matrix-associated TGF-β immunoreactivity: trend toward increased levels
[3]; [4]
  collagen type I deposition: trend toward increased levels
  macrophages (ED-2): trend toward increased levels
